Reference: patent US10149838B2, “Small molecule securinine and norsecurinine analogs and their use in inhibiting myeloperoxidase” (MiRx Pharmaceuticals, LLC, priority 2013, dated 2018)

Columns and labels:
[1] = molecular target: T1, MPO (Homo sapiens, UniProt P05164); experiment: MALDI-TOF analysis of heme and heme/compound conjugate in presence of H2O2; assay type: binding; parameters: purchased Cayman Chemical 700170
T1 sequence (P05164 49-745): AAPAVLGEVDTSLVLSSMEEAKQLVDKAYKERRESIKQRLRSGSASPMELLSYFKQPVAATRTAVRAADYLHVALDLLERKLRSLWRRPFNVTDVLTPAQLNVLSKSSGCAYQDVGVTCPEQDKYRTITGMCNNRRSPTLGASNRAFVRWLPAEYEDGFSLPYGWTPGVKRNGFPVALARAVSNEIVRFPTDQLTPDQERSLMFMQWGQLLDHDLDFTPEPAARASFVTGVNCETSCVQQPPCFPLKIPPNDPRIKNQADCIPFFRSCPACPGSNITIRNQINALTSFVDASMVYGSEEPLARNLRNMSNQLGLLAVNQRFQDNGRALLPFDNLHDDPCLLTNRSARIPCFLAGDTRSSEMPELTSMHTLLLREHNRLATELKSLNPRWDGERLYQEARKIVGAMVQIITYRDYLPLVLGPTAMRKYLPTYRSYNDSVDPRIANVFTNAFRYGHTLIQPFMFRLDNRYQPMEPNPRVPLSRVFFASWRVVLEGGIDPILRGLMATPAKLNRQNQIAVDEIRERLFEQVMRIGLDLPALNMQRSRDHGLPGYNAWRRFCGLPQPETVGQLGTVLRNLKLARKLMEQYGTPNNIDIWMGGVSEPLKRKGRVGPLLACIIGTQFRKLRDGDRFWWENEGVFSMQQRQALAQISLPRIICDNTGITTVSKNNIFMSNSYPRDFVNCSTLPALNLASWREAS
Method: (§1) Only MPO (red) and H2O2 promoted a shift in the Soret peak, formation of a new band at 630 nm (blue).
To determine the binding motif/active site of MPO and the compound of interest, a computational docking analysis using a 2.5 A crystal structure (PDB id 3ZSO) was performed. The heme ‘m’ in myeloperoxidase contains two ester bonds at the heme 1 and 5-methyls. In addition, a unique sulfonium ion linkage was observed. […] An inhibitory action of the myeloperoxidase is predicted when such covalent links are formed. Especially docking position of 184B unique and have visible effect on the Hisitidine 336 coordinated iron (FIG. 6E). These docking results explain the observed effects of 184B on the soret peak (˜433). Further MALDI-TOF analysis of heme (un conjugated) and heme/184B conjugated (in presence of H2O2) complexes are liberated from protein and analyzed ions with an ˜m/z>1040, which would be the mass of conjugated heme and 184B compare to unconjugated control only heme (m/z˜694) (FIG. 6F).

[2] = molecular target: T1, MPO; experiment: Oxidation of ascorbate by MPO, H2O2 and chloride; assay type: biochemical; parameters: purchased Cayman Chemical 700170; details: 1.0 μM, chloride
Excerpt: (§2) All Results are representative of duplicate experiments
(§3) To determine whether these analogues are selective for MPO, rather than being a general peroxidase inhibitor, thyroid peroxidase and lactoperoxidase were selected for oxidase evaluation. The effect of MA20 on the halogenation activities of MPO and thyroid peroxidase were compared by following the oxidation of ascorbate in the presence of chloride or iodide.

[3] = in vitro; assay type: in vitro ADME; details: human, microsomes
Excerpt: (§4) The securinine analog MPO inhibitors have favorable in vitro and in vivo toxicity profiles.

[4] = test system: mouse embryonic fibroblast (MEF); assay type: cell-based
Excerpt: as §4

[5] = test system: HEK293; assay type: cell-based
Excerpt: as §4

[6] = test system: Skin fibroblast (BJ1); assay type: cell-based
Excerpt: as §4

[7] = molecular target: T2, thyroid peroxidase (Homo sapiens, UniProt P07202); experiment: Oxidation of ascorbate by thyroid peroxidase and iodide (iodination activity); assay type: biochemical; details: 10 μM, iodide
T2 sequence (P07202 19-933): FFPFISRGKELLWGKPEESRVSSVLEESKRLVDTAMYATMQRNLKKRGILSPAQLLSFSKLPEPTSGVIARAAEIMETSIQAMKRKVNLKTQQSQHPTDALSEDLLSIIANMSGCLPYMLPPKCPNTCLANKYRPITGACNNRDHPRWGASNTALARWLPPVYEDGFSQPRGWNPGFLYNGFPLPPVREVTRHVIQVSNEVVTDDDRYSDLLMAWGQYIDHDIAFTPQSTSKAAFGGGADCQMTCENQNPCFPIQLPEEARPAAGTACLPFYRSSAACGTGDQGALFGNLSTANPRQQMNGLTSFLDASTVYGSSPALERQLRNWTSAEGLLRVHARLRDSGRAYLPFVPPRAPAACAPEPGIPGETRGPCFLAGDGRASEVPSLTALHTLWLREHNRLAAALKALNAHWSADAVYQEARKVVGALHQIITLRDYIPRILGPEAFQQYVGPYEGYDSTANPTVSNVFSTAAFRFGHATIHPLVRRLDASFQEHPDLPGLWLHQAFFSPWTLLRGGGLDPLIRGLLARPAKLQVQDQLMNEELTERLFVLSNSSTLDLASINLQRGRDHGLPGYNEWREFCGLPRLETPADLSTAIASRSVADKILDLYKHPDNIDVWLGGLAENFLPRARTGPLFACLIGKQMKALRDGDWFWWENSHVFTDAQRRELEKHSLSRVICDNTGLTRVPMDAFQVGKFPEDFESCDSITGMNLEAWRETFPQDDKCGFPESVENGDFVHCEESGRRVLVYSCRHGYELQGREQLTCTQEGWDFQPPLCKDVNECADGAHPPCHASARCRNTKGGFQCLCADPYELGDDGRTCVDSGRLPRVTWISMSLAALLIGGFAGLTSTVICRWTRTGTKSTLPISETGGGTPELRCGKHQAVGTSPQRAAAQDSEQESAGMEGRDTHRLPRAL
Excerpt: as §2, §3

[8] = molecular target: T1, MPO; experiment: Chlorination assay with purified MPO (HOCl formation, APF fluorescence); assay type: biochemical; parameters: purchased Cayman Chemical 700170
Method: as §2
MPO's catalyzed enzymatic reaction consists of multiple stages (FIG. 3). Chlorination occurs when Complex-I produces hypochlorous acid (HOCl) in the presence of a chloride ion. […] Analogue MA20:
(§5) To determine the mechanism of this inhibition, the MPO enzyme was incubated with MA20 in the presence or absence of H2O2 for a set time and determined the reduction in chlorination activity of the enzyme. Residual activity was measured by diluting the reaction mixture by 150 fold. Incubation with either MA20 or H2O2 had minimal MPO inhibitory activity (approximately a 25-30% reduction in chlorination activity, FIG. 7E).

[9] = molecular target: T1, MPO; experiment: Residual chlorination activity of MPO after incubation with or without H2O2, 150 fold dilution; assay type: biochemical; parameters: purchased Cayman Chemical 700170; details: FIG. 7E
Method: as §2, §5

[10] = molecular target: T1, MPO; experiment: UV/visible heme absorption spectra of MPO with compound/H2O2; assay type: binding; parameters: purchased Cayman Chemical 700170
Method: as §1
It was next set about to investigate the molecular target of the analogs (FIG. 6A). Cultured HL60 cells were treated with either Biotin/Biotin-INVMG1 (securinine) (10 μM) for 2 hr and pull-down experiments using streptavidin magnetic beads were used to pulldown bound molecules, followed by SDS-PAGE analysis (FIG. 6B). […] This 80 kDa protein band was excised, digested with trypsin, and the tryptic digests then analyzed using Mass Spectroscopy. […] The proteins bound to streptavidin beads were next separated using SDS-PAGE and incubated then with anti-human MPO antibody. […] To further confirm the binding of INVMG1 to MPO, the MPO enzyme was incubated with and without INVMG184B/H2O2, and analyzed absorption maxima using UV/visible.

[11] = test system: human neutrophils; experiment: HOCl production by PMA-stimulated human neutrophils; assay type: cell-based; details: 0.5 μM MA20, PMA 110 ng/ml 30 min
Method: as §2
The reaction was stopped by 251 μg/ml of catalase and 0.5 μM of MA20, and chlorination activity was measured. […] This effect is strikingly similar to MA20's inhibitory effect on purified MPO (FIG. 7C). […] As such, they prevent the production of HOCl without concomitant release of free radicals.

Structure (SMILES) | nature of interaction with MPO (heme conjugate) [1] | oxidation of ascorbate by MPO [2] | half-life [3] | toxicity (cell survival) [4] | toxicity (cell survival) [5] | toxicity (cell survival) [6] | effect on the iodination activity of thyroid peroxidase [7] | MPO inhibition activity assessed by chlorination activity ([8]; FIG. 7B-C) | inhibition potency (chlorination) versus chloride ion concentration ([8]; FIG. 7D) | mechanism of MPO inhibition ([8]; preliminary data) | MPO activity after addition of compound and H2O2 ([9]; MA20 and H2O2) | reduction in chlorination activity ([9]; incubation with MA20 alone, without H2O2) | binding with the heme prosthetic group (Soret ~433 nm, peak ~630 nm) [10] | PMA-induced HOCl production by neutrophils [11]
O=C1C=C2CC(S(=O)(=O)c3ccccc3)[C@@H]3C[C@@]2(O1)[C@H]1CCCCN31 (some centres unmarked) [INVS-MG-184B] | irreversible | – | – | – | – | – | – | – | – | – | – | – | – | –
O=C1C=C2C(S(=O)(=O)c3ccccc3)C[C@@H]3C[C@@]2(O1)C1CCCCN13 (some centres unmarked) [MA20] | – | completely blocked | ~1.33 h | significantly lower level of toxicity | significantly lower level of toxicity | significantly lower level of toxicity | negligible | highest MPO inhibition activity | decreased with increasing concentrations of the chloride ion | suicidal substrate | completely inhibited | 25-30% | direct binding | significantly inhibited
